According to patent publication US8927562B2, “Fused tricyclic inhibitors of mammalian target of rapamycin” (Merck Sharp & Dohme Corp., priority 2010, dated 2015):

molecular target: mTOR enzyme (Homo sapiens, UniProt P42345); experiment: mTOR Kinase Assay; type: biochemical; details: 5 μM ATP, 0.1 μM GSTS6K substrate
Procedure: The mTOR assay buffer contains 10 mM hepes (pH 7.4), 50 mM NaCl, 100 μg/ml BSA, 50 mM B-glycerophosphate, 10 mM MnCl2 and 0.5 mM DTT. 20 ng of mTOR enzyme is preincubated with the compound for 10 minutes. 5 μM ATP and 0.1 μM GSTS6K is added. The reaction is incubated for one hour at 30° C. Anti phospho p70S6K (about 1.7 ng/well) and anti GSTXL665 (1:1 Ratio with the substrate GSTS6K) are added after incubating. The plates are read at least 2 hours after adding the anti phospho p70S6K and the anti GSTXL665.
Dose-response curves were plotted from inhibition data generated, each in duplicate, from 8 point serial dilutions of inhibitory compounds. Concentration of compound was plotted against % kinase activity, calculated by CPM of treated samples divided by CPM of untreated samples. To generate IC50 values, the dose-response curves were then fitted to a standard sigmoidal curve and IC50 values were derived by nonlinear regression analysis.

| Structure (SMILES) | IC50 [nM] |
| --- | --- |
| C[C@@H](O)C(=O)N1Cc2nc3c(-c4ccc(-c5ccccc5)nc4)cnn3c(N)c2C1 [Example 1, (R)-1-(8-amino-3-(6-phenylpyridin-3-yl)-5H-pyrazolo[1,5-a]pyrrolo[3,4-d]pyrimidin-6(7H)-yl)-2-hydroxypropan-1-one] | 10 to 100 |
| Cc1cn(C2CCN(C(=O)c3nnc(N)[nH]3)CC2)c2nc3c(-c4ccc(-c5ccccc5)nc4)cnn3c(N)c12 [Example 7] | 10 to 100 |
| Cc1cn(C2CCN(C(=O)c3nnc[nH]3)CC2)c2nc3c(-c4cnc5ccc(F)cc5c4)cnn3c(N)c12 [Example 5] | < 10 |
| Nc1c2c(nc3c(-c4ccc(-c5ccccc5)nc4)cnn13)C(NC1CCOCC1)CC2 (stereo not drawn) [Example 3, 3-(6-phenylpyridin-3-yl)-N5-(tetrahydro-2H-pyran-4-yl)-6,7-dihydro-5H-cyclopenta[d]pyrazolo[1,5-a]pyrimidine-5,8-diamine] | > 100 |
| Cc1cn(C2CCN(C(=O)CO)CC2)c2nc3c(-c4cnc5ccc(F)cc5c4)cnn3c(N)c12 [Example 4, 1-(4-(8-amino-3-(6-fluoroquinolin-3-yl)-7-methyl-5H-pyrazolo[1,5-a]pyrrolo[2,3-d]pyrimidin-5-yl)piperidin-1-yl)-2-hydroxyethanone] | < 10 |
| Cc1cn(C2CCN(C(=O)c3nnc[nH]3)CC2)c2nc3c(-c4ccc(-c5ccccc5)nc4)cnn3c(N)c12 [Example 6] | 10 to 100 |
| Nc1c2c(nc3c(-c4ccc(-c5ccccc5)nc4)cnn13)CS(=O)(=O)C2 [Example 2, 3-(6-phenylpyridin-3-yl)-5,7-dihydropyrazolo[1,5-a]6,6-dioxidothieno[3,4-d]pyrimidin-8-amine] | 10 to 100 |

Now from value to compound:

| IC50 [nM] | Structure (SMILES) |
| --- | --- |
| < 10 | Cc1cn(C2CCN(C(=O)CO)CC2)c2nc3c(-c4ccc(-c5ncc[nH]5)nc4)cnn3c(N)c12 [Example 15] |
| < 10 | Cc1cn(C2CCN(C(=O)c3nnc[nH]3)CC2)c2nc3c(-c4ccc(-c5ncc[nH]5)nc4)cnn3c(N)c12 [Example 14] |
| 10 to 100 | Cc1cn(C2CCN(C(=O)CO)CC2)c2nc3c(-c4ccc(-c5ccn(C)n5)nc4)cnn3c(N)c12 [Example 11] |
| 10 to 100 | Cc1cn(C2CCN(C(=O)c3cc(N)n[nH]3)CC2)c2nc3c(-c4ccc(-c5ccccc5)nc4)cnn3c(N)c12 [Example 8] |
| < 10 | Cc1cn(C2CCN(C(=O)CO)CC2)c2nc3c(-c4cnn(-c5ccccc5)c4)cnn3c(N)c12 [Example 13] |
| < 10 | Cc1cn(C2CCN(C(=O)CO)CC2)c2nc3c(-c4ccc(-c5ccccc5)nc4)cnn3c(N)c12 [Example 9] |
| 10 to 100 | Cc1cn(C2CCN(C(=O)c3nnc[nH]3)CC2)c2nc3c(-c4cnn(-c5ccccc5)c4)cnn3c(N)c12 [Example 12] |
| < 10 | Cc1cn(C2CCN(C(=O)c3nnc[nH]3)CC2)c2nc3c(-c4ccc(-c5ccn(C)n5)nc4)cnn3c(N)c12 [Example 10] |
